ChEMBL document CHEMBL5604062, “ASAP - ZIKV NS2B-NS3 protease fluorescence dose response” (2024)
Where “and” joins values, the source holds several entries; their conditions need not be identical. Equal entries are not always repeated.

Biological target: Nonstructural protein 3 (Zika virus, UniProt A0A024AXB9)
Experiment: Functional biochemical assay to identify treatments for viral infectious disease that targets Zika NS2B-NS3 protease. Utilizing a direct enzyme activity measurement method, reading the fluorescence intensity is used to characterize the relative potency of inhibitors as IC50.
Parameters: species or system PRVABC59

Nonstructural protein 3, sequence (A0A024AXB9 whole entry): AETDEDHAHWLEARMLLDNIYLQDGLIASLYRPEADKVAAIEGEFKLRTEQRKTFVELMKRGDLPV

| Compound | IC50 |
| --- | --- |
| O=C(Nc1ccc2c(c1)CNC2)c1cc(Cl)cc2nn(-c3ccccc3)nc12 | 0.372 µM and 3.47 µM |
| CN1CCC([C@H]2CCCN(C(=O)Nc3ccc4c(c3)CNC4)C2)CC1 | > 25 µM |
| NCc1cccc(NC(=O)[C@@H](NS(=O)(=O)CCc2ccccc2)c2ccc(OCc3ccccc3)cc2)c1 | 34 µM |
| NCc1cccc(NC(=O)[C@@H](NC(=O)OCc2ccccc2)c2ccc(OC[C@H]3CCS(=O)(=O)C3)cc2)c1 | > 99.5 µM |
| O=C(N[C@@H]1CCc2cn[nH]c2C1)c1cccc2c1NC(=O)[C@]1(CCCN1)C2 | > 99.5 µM |
| O=C(Nc1ccc2c(c1)CNC2)c1nccc2[nH]ncc12 | 6.08 µM |
| O=C(Nc1ccc(NS(=O)(=O)c2ccc(Cl)cc2C(=O)O)cc1)c1ccccc1 | > 99.5 µM |
| NCc1cccc(NC(=O)[C@@H]2CCC[C@]3(CCNC3=O)C2)c1 | > 99.5 µM |
| O=C(NCC(F)F)[C@H](Nc1ccc2c(c1)CNC2)c1cccc2c1CCC2 | 3.62 µM |
| CC(C)c1occ(C(F)(F)F)c1C(=O)Nc1cccc(CN)c1 | > 99.5 µM |
| O=C1CCc2cc(C(=O)Nc3ccc4c(c3)CNC4)cc(F)c2N1 | 1.49 µM |
| NCCc1cc(C(=O)Nc2cc(-c3cccnc3)ccn2)no1 | > 25 µM |
| NC[C@@H](NC(=O)c1cc(Cl)cc(NC(=O)OCc2ccccc2)c1)c1ccccc1 | > 99.5 µM |
| CNC(=O)[C@H](Nc1cccc(N)n1)c1cc(Cl)cc(CN)c1 | > 99.5 µM |
| CC(C)CNC(=O)c1cc(Cl)c(F)cc1NS(=O)(=O)c1ccc(Oc2ccccc2Cl)cc1 | 7.81 µM |
| O=C(Nc1ccc2c(c1)CNC2)c1cc(F)cc(-c2ccnn2CC2CC2)c1 | 1.07 µM |
| O=C(Nc1ccc2c(c1)CNC2)c1cc(F)cc2[nH]c(-c3ccc(F)cc3)nc12 | 0.022 µM and 0.023 µM and 0.014 µM |
| NCc1cccc(NC(=O)[C@H](NC(=O)OCc2ccccc2)c2cccc(C3=CCCOC3)c2)c1 | 93.3 µM |
| O=S1(=O)CCN(CC#Cc2ccc3sncc3c2)CC1 | > 99.5 µM |
| COc1ccc(S(=O)(=O)Nc2cc(F)c(Cl)cc2C(=O)O)cc1 | > 99.5 µM |
| NCc1ccc(NS(=O)(=O)c2ccc(Oc3ccccc3Cl)cc2)cc1Cl | > 99.5 µM |
| Cc1cccc([C@@H](NC(=O)OCc2ccccc2)C(=O)Nc2cccc(CN)c2)n1 | > 99.5 µM |
| O=C(Nc1ccc2c(c1)CNC2)c1ccc(F)c2[nH]ncc12 | 2.65 µM |
| O=C(Nc1ccc2c(c1)CNC2)c1cc(F)cc2[nH]c(-c3ccc(F)cc3O)nc12 | 0.039 µM and 0.024 µM |
| N[C@H]1CC[C@H](c2ccc(NC(=O)c3cc(Cl)cc4[nH]ncc34)cc2)C1 | 8.51 µM |

| Compound | IC50 |
| --- | --- |
| NCc1ccc(CNC(=O)c2cc(Cl)cc(NC(=O)OCc3ccccc3)c2)cc1 | 42.6 µM |
| CS(=O)(=O)c1cccc(CNC(=O)[C@@H](NC(=O)OCc2ccccc2)c2ccc(OCc3ccccc3)cc2)c1 | > 99.5 µM |
| O=C(Nc1ccc2c(c1)CNC2)c1ccc2[nH]cc(C3CCNCC3)c2c1 | 0.797 µM and 1.06 µM |
| NCc1cc(Br)cc([C@H]2C[C@@H]2c2cc(Cl)cc(NC(=O)OCc3ccccc3)c2)c1 | 11.6 µM |
| NCc1cccc(NC(=O)c2cc(Cl)ccc2Oc2cccc(Cl)c2)c1 | 61.7 µM |
| O=C(Nc1cc(Cl)cc(C(=O)Nc2ccc3c(c2)CCNC3)c1)OCc1ccccc1 | 1.48 µM |
| CCn1c(=O)c(N2CCC[C@H]2c2cncc(Br)c2)nc2ccccc21 | > 99.5 µM |
| NCc1cccc(NC(=O)c2cc(C3CC3)n3nccc3n2)c1 | > 99.5 µM |
| O=C(Nc1ccc2c(c1)CN[C@H]2c1ccccc1)c1cc(F)cc2[nH]ncc12 | 1.89 µM |
| CS(=O)(=O)c1cc(CN)cc([C@@H]2C[C@H]2c2cc(Cl)cc(NC(=O)OCc3ccccc3)c2)c1 | 43.3 µM |
| CCn1c(=O)c(N2C[C@H]3CCC[C@H]2C3)nc2ccccc21 | > 99.5 µM |
| CCCn1ncc2c(C(=O)Nc3ccc4c(c3)CNC4)cc(Cl)cc21 | 0.188 µM |
| c1cnc2[nH]cc(C3CCN(Cc4c[nH]c5cnccc45)CC3)c2c1 | > 99.5 µM |
| Cc1ccc([C@@H](NC(=O)OCc2ccccc2)C(=O)Nc2cccc(CN)c2)cc1C(F)(F)F | 48.7 µM |
| CCCC(=O)Nc1cc(Cl)cc(C(=O)Nc2cccc(CN)c2)c1 | 4.37 µM |
| O=C1Cc2c(cccc2C(=O)N[C@H]2CCC23CCOCC3)N1 | > 25 µM |
| CC(C)NC(=O)[C@H](Nc1ccc2c(c1)CNC2)c1cccc2cn[nH]c12 | 10.9 µM |
| O=C(Nc1ccc2c(c1)CNC2)c1cc(C(F)(F)F)c2cn[nH]c2n1 | > 25 µM |
| Cc1csc(CO[C@H]2CCN(C(=O)Nc3ccc4c(c3)CNC4)C2)n1 | > 25 µM |
| CCn1ccnc(N2CC[C@H](C#N)C2)c1=O | > 99.5 µM |
| O=C(Cn1ccnc(N2CC[C@H](CO)C2)c1=O)N1CCOCC1 | > 99.5 µM |
| NCCC1(C(=O)Nc2ccc3c(c2)C(=O)OC3)CCCC1 | > 25 µM |
| O=C(Nc1cc(Cl)cc(C(=O)N[C@H](c2nn[nH]n2)C2CCNCC2)c1)OCc1ccccc1 | > 99.5 µM |
| Nc1noc2cccc(C(=O)Nc3ccc4c(c3)CNC4)c12 | 0.977 µM |
| O=C(O)c1cc(Cl)ccc1NS(=O)(=O)c1ccc(Nc2ccccc2F)nc1 | 46.7 µM |

| Compound | IC50 |
| --- | --- |
| CCn1c(=O)c(N2CC[C@]3(CCNC3=O)C2)nc2ccccc21 | > 99.5 µM |
| Cn1cc(CCOc2ccc([C@@H](NC(=O)OCc3ccccc3)C(=O)Nc3cccc(CN)c3)cc2)nn1 | > 99.5 µM |
| CCC[C@H](Oc1ccc(Cl)cc1C)C(=O)Nc1cccc(CN)c1 | > 99.5 µM |
| O=C(Nc1ccc2c(c1)CNC2)c1cc(Br)cc2[nH]c(=O)[nH]c12 | 0.027 µM and 0.025 µM |
| CNC(=O)C(=O)/C=C/c1ccccc1C | > 198 µM |
| Cc1c(C(=O)Nc2cc(-c3cccnc3)ccn2)cc(C(C)(C)C)n1C | > 25 µM |
| CC[C@H]1CN(C(=O)Nc2ccc3c(c2)CNC3)C[C@@H]1c1ccc(OC)cc1 | > 25 µM |
| O=C(Nc1cc(Cl)cc(C(=O)Nc2cccc3c2CNC3)c1)OCc1ccccc1 | 75.6 µM |
| NC[C@@H]1CN(c2cc(N3CC[C@H](N)C3)cc3c2COB3O)C(=O)O1 | 72 µM |
| Cc1c(C(=O)Nc2ccc3c(c2)CCCC(=O)N3)cc(C2CC2)n1C | > 25 µM |
| O=C(Nc1cc(-c2cccnc2)ccn1)c1coc(C2CC2)n1 | > 25 µM |
| c1cnc2[nH]cc(C3CCN(Cc4c[nH]c5ccncc45)CC3)c2c1 | 73.3 µM |
| Cc1nnsc1CN1CCC([C@@H](NC(=O)OCc2ccccc2)C(=O)Nc2cccc(CN)c2)CC1 | > 99.5 µM |
| Cc1ncc(Br)cc1C(=O)Nc1ccc2c(c1)CNC2 | 1.85 µM |
| O=C(Nc1cc(Cl)cc(C(=O)NCCc2nnn[nH]2)c1)OCc1ccccc1 | > 99.5 µM |
| NCc1cccc(NC(=O)[C@H](NC(=O)OCc2ccccc2)C2CCN(CCc3ccccc3)CC2)c1 | > 99.5 µM |
| c1cc(CN2CCC(c3c[nH]c4ncccc34)CC2)c2[nH]ccc2c1 | > 99.5 µM |
| CNC(=O)[C@H](Nc1ccc2c(c1)CNC2)c1cccc2[nH]c(C(F)(F)F)nc12 | 3.42 µM |
| C[C@@H](N)c1cccc(NC(=O)[C@@H](NC(=O)OCc2ccccc2)c2ccc(OCc3ccccc3)cc2)c1 | 33.6 µM |
| CC(C)(C)c1ncc(-c2ccc([C@@H](NC(=O)OCc3ccccc3)C(=O)Nc3cccc(CN)c3)cc2)o1 | 36.3 µM |
| CCN1CC[C@@H](COc2ccc([C@@H](NC(=O)OCc3ccccc3)C(=O)Nc3cccc(CN)c3)cc2)C1 | > 99.5 µM |
| c1cc(CN2CCC(c3c[nH]c4cccnc34)CC2)c2[nH]ncc2c1 | > 99.5 µM |
| O=C(Nc1cc(Cl)cc(C(=O)NCCCc2nnn[nH]2)c1)OCc1ccccc1 | > 99.5 µM |
| C[C@H]1CNC[C@@H]1c1ccc(NC(=O)c2cc(Cl)cc(NC(=O)OCc3ccccc3)c2)cc1 | 7.26 µM |
| CCn1c(=O)c(N2C[C@H]3COC[C@@]3(C)C2)nc2ccccc21 | > 99.5 µM |
